Reference: patent publication US10307403B2, “Polymorphic forms and process” (GALECTO BIOTECH AB, priority 2015, dated 2019)
Blank lines part the entries; values can stand above or below the molecule they belong to.

Experiments:
Format in all cases: physicochemical
[1] = Solid form stability and moisture uptake
[2] = Stability of micronized Form 1 under ICH conditions
Description: There is no increase in impurities and both the particle size and crystalline form remain unchanged.

[3] = Aerodynamic particle size determination (APSD) via New Generation Impactor (NGI); conditions: 20 mg in size 3 HPMC capsule, Plastiape Monodose inhaler
Experimental: To compare in vitro performance of the different forms for use in inhalation products, an aerodynamic particle size determination (APSD) was performed via New Generation Impactor (NGI) for Form 5 material produced via microfluidization and the amorphous form produced via spray drying. These were compared with the APSD obtained from micronized Form 1 material. For each APSD test, 20 mg 3,3′-Dideoxy-3,3′-bis-[4-(3-fluorophenyl)-1H-1,2,3-triazol-1-yl]-1,1′-sulfanediyl-di-β-D-galactopyranoside was filled into a size 3 HPMC capsule and actuated using a Plastiape Monodose inhaler device.

[4] = listed as Form 5 (microfluidization)
[5] = listed as Amorphous (Spray Drying)

- Equilibrium water content after moisture pick-up ([1]; dried upon synthesis, then picks up moisture): 3-5%
- Appearance ([2]; 6 Months @ 40° C./75 RH): Conforms
- Assay ([2]; 6 Months @ 40° C./75 RH): 97.2%
- Particle Size D10 ([2]; 6 Months @ 40° C./75 RH): 0.50 μm
- Particle Size D50 ([2]; 6 Months @ 40° C./75 RH): 1.97 μm
- Particle Size D90 ([2]; 6 Months @ 40° C./75 RH): 4.68 μm
- Polymorphism (crystalline form found) ([2]; 6 Months @ 40° C./75 RH): Form 1
- Specified impurity DEX-IMP-284-B ([2]; 6 Months @ 40° C./75 RH): 0.89%
- Specified impurity DEX-IMP-284-C ([2]; 6 Months @ 40° C./75 RH): 0.05%
- Total Impurities ([2]; 6 Months @ 40° C./75 RH): 1.57%
- Unspecified impurity 0.922RRT ([2]; 6 Months @ 40° C./75 RH): 0.12%
- Unspecified impurity 1.057RRT ([2]; 6 Months @ 40° C./75 RH): 0.11%
- Unspecified impurity 1.184RRT ([2]; 6 Months @ 40° C./75 RH): 0.34%
- Water Content ([2]; 6 Months @ 40° C./75 RH): 5.2%
- Appearance ([2]; 12 Months 25° C./60 RH): Conforms
- Assay ([2]; 12 Months 25° C./60 RH): 97.7%
- Particle Size D10 ([2]; 12 Months 25° C./60 RH): 0.51 μm
- Particle Size D50 ([2]; 12 Months 25° C./60 RH): 1.84 μm
- Particle Size D90 ([2]; 12 Months 25° C./60 RH): 4.29 μm
- Polymorphism (crystalline form found) ([2]; 12 Months 25° C./60 RH): Form 1
- Specified impurity DEX-IMP-284-B ([2]; 12 Months 25° C./60 RH): 0.89%
- Specified impurity DEX-IMP-284-C ([2]; 12 Months 25° C./60 RH): 0.04%
- Total Impurities ([2]; 12 Months 25° C./60 RH): 1.54%
- Unspecified impurity 0.922RRT ([2]; 12 Months 25° C./60 RH): 0.12%
- Unspecified impurity 1.057RRT ([2]; 12 Months 25° C./60 RH): 0.10%
- Unspecified impurity 1.184RRT ([2]; 12 Months 25° C./60 RH): 0.34%
- Water Content ([2]; 12 Months 25° C./60 RH): 4.4%
- Overall stability conclusion (in words) ([2]; ICH conditions, Table 3A): stable both chemically and physically
- Particle Size D10 ([2]; Initial): 0.56 μm
- Polymorphism (crystalline form found) ([2]; Initial): Form 1
- Unspecified impurity 1.057RRT ([2]; Initial): 0.08%
- Unspecified impurity 1.184RRT ([2]; Initial): 0.34%
- Water Content ([2]; Initial): 4.2%
- Assay ([2]; Initial, criterion 95.0-105.0% w/w): 97.9%
- Appearance ([2]; Initial, criterion white to off-white solid): Conforms
- Specified impurity DEX-IMP-284-B ([2]; Initial, criterion ≤1% (a/a)): 0.90%
- Specified impurity DEX-IMP-284-C ([2]; Initial, criterion ≤1% (a/a)): 0.03%
- Unspecified impurity 0.922RRT ([2]; Initial, criterion ≤1% each (a/a)): 0.12%
- Total Impurities ([2]; Initial, criterion ≤2.5% (a/a)): 1.54%
- Particle Size D50 ([2]; Initial, target D50 ~2 μm): 2.37 μm
- Particle Size D90 ([2]; Initial, target D90 ≤5 μm): 5.09 μm
- Mean Mass Aerodynamic Diameter (MMAD) [3]: in the respirable range
- Fine Particle Dose (FPD) ([3]; listed as Form 1 (micronized)): 7.4 mg
- Fine Particle Fraction (FPF) ([3]; listed as Form 1 (micronized)): 77%
- Mean Mass Aerodynamic Diameter (MMAD) ([3]; listed as Form 1 (micronized)): 2.6 μm
SMILES: OC[C@H]1O[C@@H](S[C@@H]2O[C@H](CO)[C@H](O)[C@H](n3cc(-c4cccc(F)c4)nn3)[C@H]2O)[C@H](O)[C@@H](n2cc(-c3cccc(F)c3)nn2)[C@H]1O [Form 1, 3,3′-Dideoxy-3,3′-bis-[4-(3-fluorophenyl)-1H-1,2,3-triazol-1-yl]-1,1′-sulfanediyl-di-β-D-galactopyranoside]
- Stability of the solid form (in words) [1]: stable and does not convert to the other forms over time

- Stability of the solid form (in words) [1]: stable
- Mean Mass Aerodynamic Diameter (MMAD) [3]: in the respirable range
- Fine Particle Dose (FPD) [3, 4]: 7.7 mg
- Fine Particle Fraction (FPF) [3, 4]: 63%
- Mean Mass Aerodynamic Diameter (MMAD) [3, 4]: 2.3 μm
SMILES: OCC1O[C@@H](SC2O[C@H](CO)C(O)C(n3cc(-c4cccc(F)c4)nn3)[C@H]2O)C(O)C(n2cc(-c3cccc(F)c3)nn2)[C@H]1O (stereo partly drawn) [Form 5, 3,3′-Dideoxy-3,3′-bis-[4-(3-fluorophenyl)-1H-1,2,3-triazol-1-yl]-1,1′-sulfanediyl-di-β-D-galactopyranoside]

- Mean Mass Aerodynamic Diameter (MMAD) [3]: in the respirable range
- Fine Particle Dose (FPD) [3, 5]: 11.8 mg
- Fine Particle Fraction (FPF) [3, 5]: 91%
- Mean Mass Aerodynamic Diameter (MMAD) [3, 5]: 1.7 μm
SMILES: OCC1O[C@@H](SC2O[C@H](CO)C(O)C(n3cc(-c4cccc(F)c4)nn3)[C@H]2O)C(O)C(n2cc(-c3cccc(F)c3)nn2)[C@H]1O (stereo partly drawn) [Amorphous, 3,3′-Dideoxy-3,3′-bis-[4-(3-fluorophenyl)-1H-1,2,3-triazol-1-yl]-1,1′-sulfanediyl-di-β-D-galactopyranoside]
